Legend:
[1] = biological target: Insulin-like growth factor 1 receptor (Homo sapiens, UniProt P08069); experiment: Inhibition of recombinant human GST-tagged IGF1R expressed in baculovirus infected Sf9 insect cells using poly (Glu,Tyr) 4:1 as substrate after 60 mins in presence of [gamma33P]ATP by scintillation counting method
[2] = biological target: Epidermal growth factor receptor (Homo sapiens, UniProt P00533); experiment: Inhibition of recombinant human GST-tagged wild-type EGFR expressed in baculovirus infected Sf9 insect cells using poly (Glu,Tyr) 4:1 as substrate after 60 mins in presence of [gamma33P]ATP by scintillation counting method
NCI-H460 = experiment: Growth inhibition of human NCI-H460 cells at 10 uM after 48 hrs by sulforhodamine B assay relative to control; assay type: functional; conditions: NCI-H460, 48 h, read-out: GI
HOP-62 = experiment: Growth inhibition of human HOP62 cells at 10 uM after 48 hrs by sulforhodamine B assay relative to control; assay type: functional; conditions: HOP-62, 48 h, read-out: GI
BT-549 = experiment: Growth inhibition of human BT549 cells at 10 uM after 48 hrs by sulforhodamine B assay relative to control; assay type: functional; conditions: BT-549, 48 h, read-out: GI
Hs-578T = experiment: Growth inhibition of human Hs 578T cells at 10 uM after 48 hrs by sulforhodamine B assay relative to control; assay type: functional; conditions: read-out: GI

Chain of Epidermal growth factor receptor (P00533 whole entry): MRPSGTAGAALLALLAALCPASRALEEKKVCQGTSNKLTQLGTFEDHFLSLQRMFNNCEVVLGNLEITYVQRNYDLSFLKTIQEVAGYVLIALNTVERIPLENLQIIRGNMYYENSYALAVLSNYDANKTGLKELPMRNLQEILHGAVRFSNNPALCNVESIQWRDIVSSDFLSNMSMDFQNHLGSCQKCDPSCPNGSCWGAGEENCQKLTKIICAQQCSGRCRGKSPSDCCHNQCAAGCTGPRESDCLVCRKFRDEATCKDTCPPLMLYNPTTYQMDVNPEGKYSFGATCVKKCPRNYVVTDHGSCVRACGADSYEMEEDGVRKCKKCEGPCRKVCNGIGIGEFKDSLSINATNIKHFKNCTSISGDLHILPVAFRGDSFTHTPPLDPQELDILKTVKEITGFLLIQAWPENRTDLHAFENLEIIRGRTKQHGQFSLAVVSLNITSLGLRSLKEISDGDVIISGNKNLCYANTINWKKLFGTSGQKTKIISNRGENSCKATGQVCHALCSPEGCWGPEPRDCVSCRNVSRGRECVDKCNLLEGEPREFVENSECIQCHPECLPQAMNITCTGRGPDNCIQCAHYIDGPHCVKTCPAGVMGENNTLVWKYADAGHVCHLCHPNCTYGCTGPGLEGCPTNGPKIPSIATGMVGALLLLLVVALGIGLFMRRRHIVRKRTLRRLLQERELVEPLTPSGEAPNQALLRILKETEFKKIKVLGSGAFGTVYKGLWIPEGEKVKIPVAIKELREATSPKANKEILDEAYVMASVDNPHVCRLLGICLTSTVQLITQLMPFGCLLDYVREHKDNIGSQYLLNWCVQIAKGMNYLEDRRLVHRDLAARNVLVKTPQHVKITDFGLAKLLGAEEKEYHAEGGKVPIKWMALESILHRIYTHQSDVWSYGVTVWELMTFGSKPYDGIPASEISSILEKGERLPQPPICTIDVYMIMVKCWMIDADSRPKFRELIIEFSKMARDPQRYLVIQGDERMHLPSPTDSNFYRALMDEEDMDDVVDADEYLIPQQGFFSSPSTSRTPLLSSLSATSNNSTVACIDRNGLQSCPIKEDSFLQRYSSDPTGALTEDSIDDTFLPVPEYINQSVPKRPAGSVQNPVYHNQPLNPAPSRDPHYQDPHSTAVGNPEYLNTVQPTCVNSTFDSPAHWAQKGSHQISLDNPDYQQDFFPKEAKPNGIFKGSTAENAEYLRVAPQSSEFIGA
Chain of Insulin-like growth factor 1 receptor (P08069 31-736 limits assumed): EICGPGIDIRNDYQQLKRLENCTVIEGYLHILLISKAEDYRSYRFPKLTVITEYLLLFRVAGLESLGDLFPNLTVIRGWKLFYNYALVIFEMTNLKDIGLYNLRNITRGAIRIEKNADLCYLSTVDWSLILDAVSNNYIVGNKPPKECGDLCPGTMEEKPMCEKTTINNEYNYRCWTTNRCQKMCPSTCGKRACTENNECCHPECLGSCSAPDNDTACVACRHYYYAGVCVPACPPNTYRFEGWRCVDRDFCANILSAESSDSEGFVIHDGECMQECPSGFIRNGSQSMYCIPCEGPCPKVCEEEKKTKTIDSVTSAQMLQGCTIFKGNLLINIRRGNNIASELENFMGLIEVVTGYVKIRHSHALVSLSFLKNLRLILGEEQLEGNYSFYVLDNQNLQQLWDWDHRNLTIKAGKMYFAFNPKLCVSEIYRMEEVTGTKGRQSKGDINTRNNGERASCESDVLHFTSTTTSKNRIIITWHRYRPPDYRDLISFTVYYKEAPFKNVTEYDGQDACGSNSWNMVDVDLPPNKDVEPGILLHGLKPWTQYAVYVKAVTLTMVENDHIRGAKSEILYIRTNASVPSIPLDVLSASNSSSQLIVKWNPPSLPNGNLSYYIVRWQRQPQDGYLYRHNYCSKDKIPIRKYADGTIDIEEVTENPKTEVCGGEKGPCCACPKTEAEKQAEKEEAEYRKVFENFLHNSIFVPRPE
Chain of Insulin-like growth factor 1 receptor (P08069 741-1367 limits assumed): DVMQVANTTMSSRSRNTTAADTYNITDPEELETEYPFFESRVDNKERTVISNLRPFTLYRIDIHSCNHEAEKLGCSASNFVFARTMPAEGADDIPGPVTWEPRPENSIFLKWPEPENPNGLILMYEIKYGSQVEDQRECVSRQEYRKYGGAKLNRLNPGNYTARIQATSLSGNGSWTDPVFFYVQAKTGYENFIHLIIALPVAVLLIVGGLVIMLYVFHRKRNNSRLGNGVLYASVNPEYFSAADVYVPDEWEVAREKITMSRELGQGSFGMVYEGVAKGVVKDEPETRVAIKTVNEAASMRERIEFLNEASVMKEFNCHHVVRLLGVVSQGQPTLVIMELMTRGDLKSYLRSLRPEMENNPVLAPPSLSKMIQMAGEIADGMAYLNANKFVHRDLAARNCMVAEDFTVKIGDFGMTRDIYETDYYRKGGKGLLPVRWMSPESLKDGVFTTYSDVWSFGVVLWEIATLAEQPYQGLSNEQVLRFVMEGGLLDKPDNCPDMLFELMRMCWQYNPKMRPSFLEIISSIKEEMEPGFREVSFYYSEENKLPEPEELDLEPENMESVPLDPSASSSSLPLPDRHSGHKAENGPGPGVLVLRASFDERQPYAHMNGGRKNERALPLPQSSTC

Compound | Ki [1] | Ki [2] | also measured
Nc1ccc2oc3nccc(NCc4ccc(Br)cc4)c3c2c1 |  |  | IC50 [1]: > 1000 µM; IC50 [2]: > 1000 µM
O=[N+]([O-])c1ccc2oc3nccc(NCc4ccc(Cl)cc4)c3c2c1 | 3.54 µM | 2.52 µM | 
Nc1ccc2oc3nccc(NCc4cccc(Cl)c4)c3c2c1 | 4.6 µM | 0.4 µM | 
Nc1cccc(CNc2ccnc3oc4ccc([N+](=O)[O-])cc4c23)c1 | 6.18 µM | 3.59 µM | 
Nc1cccc(CNc2ccnc3oc4ccc(N)cc4c23)c1 | 8.93 µM | 0.94 µM | 
O=[N+]([O-])c1ccc2oc3nccc(NCc4ccc(Br)cc4)c3c2c1 | 2.87 µM | 0.81 µM | 
Nc1ccc2oc3nccc(NCc4ccc(Cl)cc4)c3c2c1 |  |  | IC50 [1]: > 1000 µM; IC50 [2]: > 1000 µM
Nc1ccc2oc3nccc(NCc4cccc(Br)c4)c3c2c1 |  | 0.23 µM | IC50 [1]: > 1000 µM; inhibition of growth at 10 µM (NCI-H460): 23%; inhibition of growth at 10 µM (HOP-62): 18%; inhibition of growth at 10 µM (BT-549): 29%; inhibition of growth at 10 µM (Hs-578T): 16%
COc1ccc(CNc2ccnc3oc4ccc(N)cc4c23)cc1 |  |  | IC50 [1]: > 1000 µM; IC50 [2]: > 1000 µM
COc1cccc(CNc2ccnc3oc4ccc([N+](=O)[O-])cc4c23)c1 | 4.56 µM | 2.74 µM | 
COc1cccc(CNc2ccnc3[nH]c4ccc(N)cc4c23)c1 | 3.56 µM | 0.32 µM | 
COc1ccc(CNc2ccnc3oc4ccc([N+](=O)[O-])cc4c23)cc1 | 3.4 µM | 2.05 µM | 

Now from value to molecule, other results behind:

Ki [1] | Ki [2] | Compound | also measured
1.03 µM |  | COc1ccc(CNc2ccnc3oc4ccccc4c23)cc1 | 
0.28 µM | 0.08 µM | O=[N+]([O-])c1ccc2[nH]c3nccc(NCc4cccc(Cl)c4)c3c2c1 | inhibition of growth at 10 µM (NCI-H460): 73%; inhibition of growth at 10 µM (HOP-62): 89%; inhibition of growth at 10 µM (BT-549): 30%; inhibition of growth at 10 µM (Hs-578T): 82%
2.61 µM | 0.68 µM | O=[N+]([O-])c1ccc2oc3nccc(NCc4cccc(Br)c4)c3c2c1 | 
1.92 µM | 0.14 µM | Nc1ccc2[nH]c3nccc(NCc4cccc(Cl)c4)c3c2c1 | 
0.54 µM | 0.17 µM | COc1cccc(CNc2ccnc3oc4ccc(N)cc4c23)c1 | inhibition of growth at 10 µM (NCI-H460): 29%; inhibition of growth at 10 µM (HOP-62): 28%; inhibition of growth at 10 µM (BT-549): 43%; inhibition of growth at 10 µM (Hs-578T): 16%
2.39 µM | 0.93 µM | O=[N+]([O-])c1cccc(CNc2ccnc3oc4ccc([N+](=O)[O-])cc4c23)c1 | 
2.85 µM | 1.36 µM | O=[N+]([O-])c1ccc2oc3nccc(NCc4cccc(Cl)c4)c3c2c1 | 
0.32 µM | 0.11 µM | O=[N+]([O-])c1ccc2[nH]c3nccc(NCc4cccc(Br)c4)c3c2c1 | 
2.1 µM | 0.11 µM | Nc1ccc2[nH]c3nccc(NCc4cccc(Br)c4)c3c2c1 | 
0.89 µM | 0.33 µM | COc1cccc(CNc2ccnc3[nH]c4ccc([N+](=O)[O-])cc4c23)c1 | 

Reference: ChEMBL document CHEMBL4190164 (Medchemcomm, 2016)
